Reference: EP4763845A1, “CYANO AROMATIC RING DERIVATIVE AND PHARMACEUTICAL USE THEREOF” (Haisco Pharmaceutical Group Co., Ltd., priority 2023, dated 2025)
Where two headings read alike, the source gives them in different places.

What was measured:
Format in all cases: cell-based
AR protein = molecular target: T1, AR protein (Homo sapiens, UniProt P10275); test: Detection of AR degradation in VCaP cells (automated western blot); details: for DC50: degradation of AR protein in VCaP cells, 24 hours incubation, read-out: DC50; for Degradation rate %: AR protein in VCaP cells, concentration of 30 nM, 24 hours
T1 construct: VCap is a human prostate cancer cell line purchased from ATCC; host or cells: VCaP human prostate cancer cells
T1 sequence (P10275 1-920): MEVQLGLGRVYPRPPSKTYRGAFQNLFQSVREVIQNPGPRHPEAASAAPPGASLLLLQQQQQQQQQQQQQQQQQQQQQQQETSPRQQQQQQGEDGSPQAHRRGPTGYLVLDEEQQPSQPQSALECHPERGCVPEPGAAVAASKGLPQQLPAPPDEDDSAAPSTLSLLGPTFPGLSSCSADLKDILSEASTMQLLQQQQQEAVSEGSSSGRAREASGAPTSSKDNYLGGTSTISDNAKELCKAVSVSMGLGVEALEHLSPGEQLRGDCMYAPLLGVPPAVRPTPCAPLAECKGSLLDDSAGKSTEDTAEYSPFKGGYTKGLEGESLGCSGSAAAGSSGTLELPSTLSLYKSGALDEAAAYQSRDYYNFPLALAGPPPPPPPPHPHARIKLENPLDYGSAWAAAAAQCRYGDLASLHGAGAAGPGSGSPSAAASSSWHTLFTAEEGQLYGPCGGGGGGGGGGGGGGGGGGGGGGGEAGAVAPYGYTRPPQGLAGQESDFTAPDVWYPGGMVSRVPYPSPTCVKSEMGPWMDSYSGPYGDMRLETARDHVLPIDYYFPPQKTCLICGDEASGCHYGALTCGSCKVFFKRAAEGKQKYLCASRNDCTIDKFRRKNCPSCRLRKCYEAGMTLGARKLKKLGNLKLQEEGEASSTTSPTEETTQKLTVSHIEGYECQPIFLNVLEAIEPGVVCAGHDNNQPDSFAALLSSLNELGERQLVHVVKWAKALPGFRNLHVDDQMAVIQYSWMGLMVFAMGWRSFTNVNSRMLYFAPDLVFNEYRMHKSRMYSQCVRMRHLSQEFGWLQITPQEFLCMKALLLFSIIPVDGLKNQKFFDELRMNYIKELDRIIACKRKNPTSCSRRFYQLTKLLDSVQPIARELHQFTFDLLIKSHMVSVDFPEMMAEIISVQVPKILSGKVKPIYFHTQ
Protocol: VCap is a human prostate cancer cell line purchased from ATCC and cultured under the following conditions: DMEM + 10% FBS + 1% penicillin-streptomycin solution. The cells were cultured in a 37°C, 5% CO2 incubator. The cells were seeded in a 6-well plate, with 5 × 10^5 cells/well. After seeding, compounds at various concentrations were added, and the plate was incubated for 24 hours in the 37°C, 5% CO2 incubator. Following incubation, the cells were harvested and RIPA lysis buffer (beyotime, Cat. P0013B) was added. The cells were lysed on ice for 15 minutes and centrifuged at 12,000 rpm at 4°C for 10 minutes. The supernatant protein samples were collected and the protein was quantified using the BCA kit (Beyotime, Cat. P0009). Then the protein was diluted to 0.25 mg/mL. The expressions of AR (CST, Cat.5153S) and the internal reference β-actin (CST, Cat. 3700S) were detected using a fully automated western blot quantitative analyser (Proteinsimple). Using the "Compass for SW" software, the relative peak area of AR was calculated when the internal reference area was 10,000. The proportion of AR relative to the solvent control group at various drug concentrations was calculated according to Equation (1), where ARtreat represents the relative peak area of the compound-treated group, and ARsolvent represents the relative peak area of the solvent control group. The processed data obtained from Equation (1) were analysed using GraphPad Prism 8.3.0 software, and the DC50 value was calculated using a four-parameter nonlinear regression model. The degradation rate at a specified concentration was determined as 100-AR%. AR% = ARtreat/ ARsolvent × 100% [formula]

hERG potassium channel = molecular target: T2, hERG potassium channel (Homo sapiens, UniProt Q12809); test: hERG potassium ion channel test (manual patch-clamp, CHO cells)
T2 construct: expressed in transfected cells; host or cells: CHO cells stably expressing hERG
Text: Experimental platform: Electrophysiological manual patch-clamp system
Cell line: Chinese hamster ovary (CHO) cell lines stably expressing hERG potassium ion channel
Experimental method: In Chinese Hamster Ovary (CHO) cells stably expressing hERG potassium channel, whole cell patch-clamp technique was used to record hERG potassium channel current at room temperature. The glass microelectrode was made of a glass electrode blank (BF150-86-10, Sutter) by a puller. The tip resistance after filling the liquid in the electrode was about 2-5 MΩ. The glass microelectrode can be connected to the patch-clamp amplifier by inserting the glass microelectrode into an amplifier probe. The clamping voltage and data recording were controlled and recorded by the pClamp 10 software through a computer. The sampling frequency was 10 kHz, and the filtering frequency was 2 kHz. After the whole cell records were obtained, the cells were clamped at -80 mV, and the step voltage that induced the hERG potassium current (I hERG) was depolarised from -80 mV to +20 mV for 2 s, then repolarised to -50 mV, and returned to -80 mV after 1 s. This voltage stimulation was given every 10 s, and the administration process was started after the hERG potassium current was confirmed to be stable (at least 1 minute). The compound was administered for at least 1 minute at each test concentration, and at least 2 cells (n ≥ 2) were tested at each concentration.
Data processing: Data analysis processing was carried out by using pClamp 10, GraphPad Prism 5 and Excel software.
Compound IC50 was calculated using GraphPad Prism 5 software by fitting according to the following equation: Y = Bottom + (Top−Bottom)/(1+10^(∧)((LogIC50−X)*HillSlope)) [formula] where X represents the Log value of the tested concentration of the test sample, Y represents the inhibition percentage at the corresponding concentration, and Bottom and Top represent the minimum and maximum inhibition percentage, respectively.

VCaP cells = test: VCaP cell proliferation inhibition experiment (CellTiter-Glo); details: Homo sapiens, 168 h
Protocol: After centrifugation and resuspension, viable cell counting was performed using a Vi-Cell XR cell counter. […] Then, 180 µl of the cell suspension was added per well to a 96-well cell culture plate at a cell density of 7,500 cells/well. At the time of seeding, T0 wells were also prepared. The following day, R1881 at a final concentration of 0.1 nM and compounds at various concentrations were added. The plate was placed back into the incubator and cultured for an additional 7 days. At the time of compound addition, the T0 plate was measured using the CellTiter-Glo (CTG) kit (Promega, Cat. No. G7572) and recorded as RLU0. Following incubation, 75 µl of pre-thawed and room temperature-equilibrated CellTiter-Glo solution was added to each well. […] The results were processed according to Equation (2). […] Growth% = (RLUcompound−RLU0)/(RLUcontrol−RLU0) × 100% [formula]

[1] = chinese hamster, inhibitory activity against hERG potassium channel current, CHO cells, whole cell patch-clamp, read-out: IC50

T2 sequence (Q12809 whole entry): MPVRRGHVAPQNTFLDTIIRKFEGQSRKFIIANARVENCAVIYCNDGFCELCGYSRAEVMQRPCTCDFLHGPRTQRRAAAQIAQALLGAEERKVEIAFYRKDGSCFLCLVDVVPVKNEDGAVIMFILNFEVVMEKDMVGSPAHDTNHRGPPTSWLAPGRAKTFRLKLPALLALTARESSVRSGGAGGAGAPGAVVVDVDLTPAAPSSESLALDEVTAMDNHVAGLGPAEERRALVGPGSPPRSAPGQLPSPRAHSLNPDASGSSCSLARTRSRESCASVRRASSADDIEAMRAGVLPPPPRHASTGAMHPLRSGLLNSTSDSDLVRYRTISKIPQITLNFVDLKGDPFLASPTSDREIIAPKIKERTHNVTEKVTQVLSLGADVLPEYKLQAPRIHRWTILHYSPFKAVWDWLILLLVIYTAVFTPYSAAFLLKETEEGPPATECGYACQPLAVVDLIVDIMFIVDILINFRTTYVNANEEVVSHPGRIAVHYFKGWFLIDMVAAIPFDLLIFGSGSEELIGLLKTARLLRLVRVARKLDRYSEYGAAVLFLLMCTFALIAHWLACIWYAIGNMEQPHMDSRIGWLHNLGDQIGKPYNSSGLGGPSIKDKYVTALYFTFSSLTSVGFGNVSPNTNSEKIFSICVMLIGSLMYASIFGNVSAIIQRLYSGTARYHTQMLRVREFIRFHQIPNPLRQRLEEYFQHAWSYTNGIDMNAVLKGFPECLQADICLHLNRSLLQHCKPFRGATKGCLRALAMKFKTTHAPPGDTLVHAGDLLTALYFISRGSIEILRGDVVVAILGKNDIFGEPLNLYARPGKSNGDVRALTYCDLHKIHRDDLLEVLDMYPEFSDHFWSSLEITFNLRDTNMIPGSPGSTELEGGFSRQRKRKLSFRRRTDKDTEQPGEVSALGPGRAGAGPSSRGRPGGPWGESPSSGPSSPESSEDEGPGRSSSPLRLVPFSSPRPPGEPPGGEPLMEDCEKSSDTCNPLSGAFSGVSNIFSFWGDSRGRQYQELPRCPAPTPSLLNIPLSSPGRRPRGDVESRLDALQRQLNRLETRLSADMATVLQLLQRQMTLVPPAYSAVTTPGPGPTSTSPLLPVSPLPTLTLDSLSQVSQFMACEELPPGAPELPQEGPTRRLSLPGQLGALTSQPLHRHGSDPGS

COc1cc(O[C@H]2C(C)(C)[C@H](NC(=O)c3ccc(N4CCC(CN5CCN6c7cc(F)c(C(=O)NC8CCC(=O)NC8=O)cc7CC[C@@H]6C5)CC4)cc3)C2(C)C)ccc1C#N (stereo partly drawn) [Trifluoroacetate of compound 4]
DC50 (AR protein): < 100 nM
IC50 (hERG potassium channel; [1]): > 40 µM

CC1(C)[C@H](NC(=O)c2ccc(N3CCC(CN4CCN5c6cc(F)c(C(=O)N[C@H]7CCC(=O)NC7=O)cc6CC[C@H]5C4)CC3)cc2)C(C)(C)[C@H]1Oc1ccc(C#N)c2ncccc12 [Compound 35]
DC50 (AR protein): < 100 nM
IC50 (hERG potassium channel; [1]): > 40 µM

CC1(C)[C@H](NC(=O)c2ccc(N3CCC(CN4CCN5c6cc(F)c(C7CCC(=O)NC7=O)cc6CC[C@H]5C4)CC3)cc2)C(C)(C)[C@H]1Oc1ccc(C#N)c(C2CC2)c1 (stereo partly drawn) [Compound 118]
Degradation rate % (AR protein): >70%
IC50 (hERG potassium channel; inhibitory activity against hERG potassium channel current, CHO cells, whole cell patch-clamp, read-out: IC50): > 40 µM

[2H]C([2H])([2H])Oc1cc(O[C@H]2C(C)(C)[C@H](NC(=O)c3ccc(N4CCC5(CC4)CC(N4CCN6c7cc(F)c(N8CCC(=O)NC8=O)cc7CC[C@@H]6C4)C5)cc3)C2(C)C)ccc1C#N [Compound 94]
GI50 (VCaP cells): < 300 nM

COc1cc(O[C@H]2C(C)(C)[C@H](NC(=O)c3ccc(N4CCC(CN5CCN6c7cc(F)c(C8CCC(=O)NC8=O)cc7CC[C@@H]6C5)CC4)cc3)C2(C)C)ccc1C#N (stereo partly drawn) [Trifluoroacetate of compound 2]
DC50 (AR protein): < 100 nM
IC50 (hERG potassium channel): > 40 µM

[2H]C([2H])([2H])Oc1cc(O[C@H]2C(C)(C)[C@H](NC(=O)c3ccc(N4CCC(CN5CCN6c7cc(F)c(C(=O)N[C@H]8CCC(=O)NC8=O)cc7CC[C@@H]6C5)CC4)nn3)C2(C)C)ccc1C#N [Compound 87]
GI50 (VCaP cells): < 500 nM

CC1(C)[C@H](NC(=O)c2ccc(N3CCC(CN4CCN5c6cc(F)c(C(=O)N[C@H]7CCC(=O)NC7=O)cc6CC[C@@H]5C4)CC3)cc2)C(C)(C)[C@H]1Oc1ccc(C#N)c2ncccc12 [Compound 34]
DC50 (AR protein): < 100 nM
IC50 (hERG potassium channel; [1]): > 40 µM

COc1cc(O[C@H]2C(C)(C)[C@H](NC(=O)c3ccc(N4CCC(CN5CCN6c7cc(F)c(C8CCC(=O)NC8=O)cc7CC[C@H]6C5)CC4)cc3)C2(C)C)ccc1C#N (stereo partly drawn) [Trifluoroacetate of compound 1]
DC50 (AR protein): < 100 nM
IC50 (hERG potassium channel; chinese hamster, cho cells): > 40 µM

[2H]C([2H])([2H])Oc1cc(O[C@H]2C(C)(C)[C@H](NC(=O)c3ccc(N4CCC(CN5CCN6c7cc(F)c(C8CCC(=O)NC8=O)cc7CC[C@H]6C5)CC4)cc3)C2(C)C)ccc1C#N (stereo partly drawn) [Compound 37]
DC50 (AR protein): < 100 nM
GI50 (VCaP cells): < 300 nM

CC1(C)[C@H](NC(=O)c2ccc(N3CCC4(CC3)CC(CN3CCN5c6cc(F)c(C7CCC(=O)NC7=O)cc6CC[C@H]5C3)C4)cc2)C(C)(C)[C@H]1Oc1ccc(C#N)c2ncccc12 (stereo partly drawn) [Compound 73]
DC50 (AR protein): < 100 nM
IC50 (hERG potassium channel; [1]): > 40 µM

CC1(C)[C@H](NC(=O)c2ccc(N3CCC(CN4CCN5c6cc(F)c(N7CCC(=O)NC7=O)cc6CC[C@H]5C4)CC3)cc2)C(C)(C)[C@H]1Oc1ccc(C#N)c2ncccc12 [Trifluoroacetate of compound 33]
DC50 (AR protein): < 100 nM
GI50 (VCaP cells): < 500 nM

Cc1cc(O[C@H]2C(C)(C)[C@H](NC(=O)c3ccc(N4CCC(CN5CCN6c7cc(F)c(N8CCC(=O)NC8=O)cc7CC[C@@H]6C5)CC4)cc3)C2(C)C)cc(C)c1C#N [Compound 82]
DC50 (AR protein): < 100 nM

CC1(C)[C@H](NC(=O)c2ccc(N3CCC(CN4CCN5c6cc(F)c(C7CCC(=O)NC7=O)cc6CC[C@@H]5C4)CC3)cc2)C(C)(C)[C@H]1Oc1ccc(C#N)c(Cl)c1 (stereo partly drawn) [Compound 48]
DC50 (AR protein): < 100 nM

COc1cc(O[C@H]2C(C)(C)[C@H](NC(=O)c3ccc(N4CCC(CN5CCN6c7cc(F)c(N8CCC(=O)NC8=O)cc7CC[C@@H]6C5)CC4)cc3)C2(C)C)ccc1C#N [Compound 28]
IC50 (hERG potassium channel): > 40 µM

CC1(C)[C@H](NC(=O)c2ccc(N3CCC(CN4CCN5c6cc(F)c(C(=O)N[C@H]7CCC(=O)NC7=O)cc6CC[C@@H]5C4)CC3)cc2)C(C)(C)[C@H]1Oc1ccc(C#N)c(Cl)c1 [Compound 52]
GI50 (VCaP cells): < 300 nM

[2H]C([2H])([2H])Oc1cc(O[C@H]2C(C)(C)[C@H](NC(=O)c3ccc(N4CCC(CN5CCN6c7cc(F)c(C(=O)N[C@H]8CCC(=O)NC8=O)cc7CC[C@@H]6C5)CC4)cc3)C2(C)C)ccc1C#N [Compound 40]
DC50 (AR protein): < 100 nM
GI50 (VCaP cells): < 300 nM

CC1(C)[C@H](NC(=O)c2ccc(N3CCC(CN4CCN5c6cc(F)c(N7CCC(=O)NC7=O)cc6CC[C@H]5C4)CC3)cc2)C(C)(C)[C@H]1Oc1ccc(C#N)c(Cl)c1 [Compound 51]
DC50 (AR protein): < 100 nM

CC1(C)[C@H](NC(=O)c2ccc(N3CCC(CN4CCN5c6cc(F)c(C(=O)N[C@H]7CCC(=O)NC7=O)cc6CC[C@@H]5C4)CC3)cc2)C(C)(C)[C@H]1Oc1ccc(C#N)c(C2CC2)c1 [Compound 119]
Degradation rate % (AR protein): >70%

[2H]C([2H])([2H])Oc1cc(O[C@H]2C(C)(C)[C@H](NC(=O)c3ccc(N4CCC(CN5CCN6c7cc(F)c(C8CCC(=O)NC8=O)cc7CC[C@H]6C5)CC4)nn3)C2(C)C)ccc1C#N (stereo partly drawn) [Compound 86]
GI50 (VCaP cells): < 300 nM

[2H]C([2H])([2H])Oc1cc(O[C@H]2C(C)(C)[C@H](NC(=O)c3ccc(N4CCC5(CC4)CC(CN4CCN6c7cc(F)c(N8CCC(=O)NC8=O)cc7CC[C@@H]6C4)C5)cc3)C2(C)C)ccc1C#N [Trifluoroacetate of compound 44]
DC50 (AR protein): < 100 nM
